These results are taken from PubChem BioAssay (NCI).

SMILES strings stand for the structures. Where “and” joins values, the source holds several entries; their conditions need not be identical. Equal entries are not always repeated.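 Values below derive from 48-hour exposures of cells grown in 96-well plates, with endpoints linearly interpolated between the two concentrations bracketing the appropriate inhibition level. GI50: concentration for 50% inhibition of growth. TGI: total growth inhibition.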

Common to all, as to assay: growth of human tumour cells (NCI), 48 h
Assay [1] has as its system CCRF-CEM leukemia.
Assay [2] has as its system DLD-1 colon.
Assay [3] relates to DU-145 prostate.
Assay [4] has as its system HCT-116 colon.
Assay [5] relates to HCT-15 colon.
For assay [6], the system named is M19-MEL melanoma.
Assay [7] concerns MDA-N.
The test system of assay [8] is OVCAR-3 ovarian.
Assay [9] concerns SNB-75 CNS.
Assay [10] relates to U251 CNS.

As for `Cc1c2cnccc2c(C)c2c1c1ccccc1n2CCCN`, the GI50 in [1] was 96.6 nM and 18.8 nM; in assay [4], 121 nM; in [8], 721 nM and 251 nM; in assay [9] it was 169 nM; in [10], 69.6 nM. For the same molecule, the TGI is 750 nM and 215 nM in assay [1]; 847 nM in assay [2]; 798 nM in assay [3]; 609 nM and 628 nM in [4]; 724 nM and 1110 nM in assay [5]; 915 nM in [6]. Further, the TGI was 1390 nM in [7]; 1840 nM and 833 nM in [8]; 1480 nM and 368 nM in assay [9]; 911 nM and 523 nM in assay [10].
